According to patent publication US20160311788A1, “Antifouling Compounds And Use Thereof” (National University of Singapore, priority 2008, published 2016):
In brackets after ≈: the same amount, converted by molar mass. Where two headings read alike, the source gives them in different places.

Key:
[1] = test system: marine bacteria strain S1; test: disc inhibition assay, strain S1; type: cell-based, Rhodovulum iodosum; settings: strain 1, 50 μg of compound per disc
Description: (§1) The disc inhibition assay was used. This assay is a conventional method routinely used for screening antibacterial compounds to determine degree of susceptibility to antibacterial compounds. The diameter of the zone of inhibition is proportional to the degree of susceptibility of the bacterial strain. The compounds were tested against 13 strains of marine bacteria isolated from Singapore coastal waters.
(§2) 13 strains of marine bacteria were isolated from fouling communities located in the coastal waters around Singapore. These were characterized in earlier studies and reported in Teo et al. (U.S. patent application Ser. No. 11/265,833) and Choong et al (in prep). In addition, four reference bacterial strains were added tested: Escherichia coli (Strain K12, ATCC 15222), E. coli (strain DH5a), Pseudomonas aeruginosa (strain LMG 12228; ATCC 15692) and P. putida (strain KT2440; ATCC 47054). All the bacteria were also tested against five antibiotics: ampicillin (AMP), tetracycline (TETR), erythromycin (ERY), chloramphenicol (CHL) and streptomycin (STREP).
(§3) Disks comprising the compounds to be tested were prepared as follows. The antibacterial assay, the pure compounds were made up to a concentration of 2 mgml^−1 in DMSO. 25 μl of the stock was pipetted onto each 6 mm sterile disc (Macherey-Nagel #484000) to obtain 50 μg of compound per disc. Equivalent volume of DMSO was used inoculated for the control.
(§4) For all disk inhibition assays, bacterial cultures were grown in marine broth (Pronadisa #1217.00). Sterile swabs dipped into the cultures were used to inoculate Marine Agar plates with a bacterial lawn by smearing the culture over the surface. After inoculating the plates, discs with antibiotics, pharmaceuticals or control blanks were placed on each plate. Each concentration of antibiotic or pharmaceutical was tested with two replicates. After the disks were placed on the agar surface, plates were incubated overnight in the dark at 35° C. After incubation, plates were examined for zones of inhibition or clearing around control and treated disks. The diameter of any zone of clearing or inhibition was measured using Vernier calipers. There were two replicates per treatment, and the average was taken.

[2] = test system: marine bacteria strain S3; test: disc inhibition assay, strain S3; type: cell-based, Erythrobacter aquimaris; settings: for zone of inhibition at 50 µg/disc: Qipengyuania aquimaris, S3, 24 h
Description: as §1, §2, §3, §4

[3] = test system: marine bacteria strain S4; test: disc inhibition assay, strain S4; type: cell-based, Bacillus algicola; settings: strain 4, 50 μg of compound per disc; for zone of inhibition at 50 µg/disc: Guptibacillus algicola, S4, 24 h, read-out: zone of inhibition
Description: as §1, §2, §3, §4

[4] = test system: marine bacteria strain S9; test: disc inhibition assay, strain S9; type: cell-based, Bacillus algicola; settings: strain 9, 50 μg of compound per disc; for zone of inhibition at 50 µg/disc: Guptibacillus algicola, S9, 24 h, read-out: zone of inhibition
Description: as §1, §2, §3, §4

[5] = test system: marine bacteria strain S10; test: disc inhibition assay, strain S10; type: cell-based, Halobacillus trueperi; settings: strain 10, 50 μg of compound per disc
Description: as §1, §2, §3, §4

[6] = test system: marine bacteria strain S14; test: disc inhibition assay, strain S14; type: cell-based, Vibrio probioticus; settings: strain 14, 50 μg of compound per disc
Description: as §1, §2
(§5) Disks comprising the compounds to be tested were prepared as follows. The antibacterial assay, the pure compounds were made up to a concentration of 2 mgml^−1 in DMSO. […] Equivalent volume of DMSO was used inoculated for the control.
as §4

[7] = test system: marine bacteria strain S16; test: disc inhibition assay, strain S16; type: cell-based, Pseudoalteromonas piscicida; settings: for zone of inhibition at 50 µg/disc: Pseudoalteromonas piscicida, S16, 24 h
Description: as §1, §2, §3, §4

[8] = test system: marine bacteria strain S17; test: disc inhibition assay, strain S17; type: cell-based, Gordonia terrae; settings: strain 17, 50 μg of compound per disc
Description: as §1, §2, §3, §4

[9] = test system: marine bacteria strain S18; test: disc inhibition assay, strain S18; type: cell-based, Microbacterium esteraromaticum; settings: strain 18, 50 μg of compound per disc
Description: as §1, §2, §5, §4

[10] = test system: marine bacteria strain S27; test: disc inhibition assay, strain S27; type: cell-based, Tenacibaculum lutimaris; settings: strain 27, 50 μg of compound per disc
Description: as §1, §2, §3, §4

[11] = test system: marine bacteria strain S28; test: disc inhibition assay, strain S28; type: cell-based, Arthrobacter protophormial; settings: strain 28, 50 μg of compound per disc
Description: as §1, §2, §3, §4

[12] = test system: marine bacteria strain S29; test: disc inhibition assay, strain S29; type: cell-based, Bacillus hwajinpoensis; settings: strain 29, 50 μg of compound per disc
Description: as §1, §2, §3, §4

[13] = test system: marine bacteria strain S30; test: disc inhibition assay, strain S30; type: cell-based, Bacillus borophilicus; settings: strain 30, 50 μg of compound per disc
Description: as §1, §2, §3, §4

[14] = test system: Stage II nauplii of Balanus amphitrite; test: barnacle toxicity assay; type: in vivo
Description: (§6) Pure compounds were suspended in DMSO and sonicated to obtain a stock solution of 50 mg ml^−1 in DMSO. This stock solution is stored at −20° C. in 4 ml amber screw cap vials. For the bioassays, a small volume of stock solution was added to 1 μm filtered seawater in a glass scintillation vial. This suspension was then sonicated around 10 minutes. Serial dilutions were generated to the required range of concentrations. Serial dilution of the equivalent amounts of DMSO in seawater was used as the control.
(§7) The barnacle bioassay method used follows from the method first introduced by Rittschof et al. (1992), and subsequently by other authors (Willemsen et al., 1998). This method is now standard practice for many antifouling screening of novel compounds.
Toxicity assays were modified from Rittschof et al. (1992). Stage II naupliar larvae used in tests were obtained from Balanus amphitrite adults collected from inter-tidal rock walls at Kranji mangrove, Singapore. Larvae were collected from a container of adults by attraction to a point source of light and transferred to 500 ml of fresh seawater. Next, larvae were re-concentrated with a fiber optic light and added to assays.
Duplicate assays were conducted in 2 ml glass vials (La Pha Pack® PN 11-14-0544) in 1 ml of filtered seawater for 22 to 24 hours. The assays were repeated for confirmation. There were two sets of controls, a blank control consisting of 3 tubes of seawater only, and DMSO control consisting of the equivalent dilution series with DMSO without compound). For the compounds, there were 3 tubes of each for each test concentration. The assay was initiated by addition of barnacle naupliar in 50 μl of seawater. After 22 to 24 hours of incubation at 25-27° C. solutions containing test animals were transferred to a Bogorov tray and scored as living or dead. Moribund larvae were scored as dead. Results were confirmed by repeating the assay. Data were combined and the concentration that caused 50% mortality (LD50) was calculated by probit analysis using a basic computer program (Libermann, 1983). If data were not appropriate for probit analysis, the LD50 was estimated from graphed data.

[15] = test system: cyprids of Balanus amphitrite; test: barnacle settlement assay; type: in vivo; settings: for IC50: Amphibalanus amphitrite, 24 h, concentration that caused 50% settlement inhibition, 24 hours, cyprids; for percentage of cyprids that settled: after 24 hours incubation, averaged over two trials
Description: as §6, §7
Barnacle settlement assays were based on methodology from Rittschof et al. (1992). Barnacle larvae from field-collected adults were reared on an algal mixture of 1:1 v/v of Tetraselmis suecica and Chaetoceros muelleri at 25° C., at approximately 5×10^5 cells per ml density. On this regime, larvae metamorphose to cyprids in 5 days. These cyprids were aged at 4° C. for 2-3 days, and 45-70% settlement after 24 hours (Willemsen et al., 1998).
Settlement tests were conducted in 7 ml neutral glass vials (Samco® T1 03N1) 34 mm by 23 mm diameter, with 20-40 cyprids per well. Test solutions were made up to twice the required final concentration. 0.5 ml of test solution was added into each well, and cyprids were transferred into each well in 0.5 ml of seawater. Assays were done in triplicate. As before, there were two sets of controls, a blank control consisting 3 tubes of seawater only, and DMSO control consisting of the equivalent dilution series with DMSO without compound. After 24 hours, larvae that had attached and metamorphosed were enumerated and the result expressed as percentage settlement. Larvae not attached were scored as not settled. The assays were repeated and the concentration that caused 50% settlement inhibition (ED50) was determined by pro bit analysis using a basic computer program (Lieberman, 1983), or by estimation from graphed data.

[16] = strain 16, 50 μg of compound per disc
[17] = Table 3(a), concentration that caused 50% mortality, 22 to 24 hours, Stage II nauplii
[18] = strain 3, 50 μg of compound per disc
[19] = Table 3(a), read-out: ED50 (the source's name)
[20] = strain 3, 50 μg of compound per disc, read-out: zone of inhibition
[21] = Table 3(b), highest concentration tested 25 μg/ml

Row | SMILES | zone of inhibition [1] | zone of inhibition [3] | zone of inhibition [4] | zone of inhibition [5] | zone of inhibition [6] | zone of inhibition [7, 16] | zone of inhibition [8] | zone of inhibition [9] | zone of inhibition [10] | zone of inhibition [11] | zone of inhibition [12] | zone of inhibition [13] | LD50 [14, 17] [µg/mL] | IC50 [15, 19] [µg/mL] | LD50 [14, 21] [µg/mL] | percentage of cyprids that settled ([15]; 0.2 ug/ml) [%] | percentage of cyprids that settled ([15]; 1 ug/ml) [%] | percentage of cyprids that settled ([15]; 5 ug/ml) [%] | percentage of cyprids that settled ([15]; 25 ug/ml) [%] | also measured
1 | CN(C)C(=O)C(c1ccccc1)c1ccccc1 [Compound 3.1, diphenamid, reference compound] | − | − | − | − | − | − | − | − | − | − | − | − | > 50 |  |  |  |  |  |  | zone of inhibition at 50 µg/disc [2]: 2 to 5 mm; IC50 ([15]; read-out: ED50, Table 3(a)): 15.1 µg/mL (≈ 63.1 µM)
2 | OC1(c2ccc(Cl)cc2)CCNCC1 [Compound 3.4] | − |  |  | − | − |  | − | − | − | − | − | − | 8.41 | 43.9 (≈ 208 µM) |  |  |  |  |  | zone of inhibition [2, 18]: −; zone of inhibition at 50 µg/disc [3]: 2 to 5 mm; zone of inhibition at 50 µg/disc [4]: 2 to 5 mm; zone of inhibition at 50 µg/disc ([7]; strain 16, 50 μg of compound per disc, read-out: zone of inhibition): 2 to 5 mm
3 | O=C(C(c1ccccc1)c1ccccc1)N1CCCCC1 [Compound 4.1, 2,2-Diphenyl-1-(piperidin-1-yl)ethanone] | − |  |  |  | − | − |  |  |  |  | − | − | > 50 | 2.35 (≈ 8.41 µM) |  |  |  |  |  | zone of inhibition at 50 µg/disc [2, 20]: 5 to 10 mm; zone of inhibition at 50 µg/disc [3]: 2 to 5 mm; zone of inhibition at 50 µg/disc [4]: 2 to 5 mm; zone of inhibition at 50 µg/disc ([5]; Halobacillus trueperi, S10, 24 h, read-out: zone of inhibition): 2 to 5 mm; zone of inhibition at 50 µg/disc ([8]; Gordonia terrae, S17, 24 h, read-out: zone of inhibition): 2 to 5 mm; zone of inhibition at 50 µg/disc ([9]; Microbacterium esteraromaticum, S18, 24 h, read-out: zone of inhibition): 2 to 5 mm; zone of inhibition at 50 µg/disc ([10]; Tenacibaculum lutimaris, S27, 24 h, read-out: zone of inhibition): 2 to 5 mm; zone of inhibition at 50 µg/disc ([11]; Arthrobacter, S28, 24 h, read-out: zone of inhibition): 2 to 5 mm; naupliar toxicity in words ([14]; in vivo): no observable naupliar toxicity; anti-settlement activity in words [15]: displayed anti-settlement activity
4 | CN1CCC(O)(c2ccccc2)CC1 [Compound 4.4] | − | − | − | − | − |  | − | − | − | − | − | − | 12.35 | 5.98 (≈ 31.3 µM) |  |  |  |  |  | zone of inhibition [2, 18]: −; zone of inhibition at 50 µg/disc [7]: 2 to 5 mm
5 | O=C(C(c1ccccc1)c1ccccc1)N1CCC(O)(c2ccccc2)CC1 [Compound 4.5] | − | − | − | − | − | − | − | − | − | − | − | − | > 50 | 6.48 (≈ 17.4 µM) |  |  |  |  |  | zone of inhibition at 50 µg/disc [2, 20]: 5 to 10 mm
6 | CCCCCCC(CCCC)C(=O)N1CCCCC1 (stereo not drawn) [Compound 12.8] |  |  |  |  |  |  |  |  |  |  |  |  |  | < 10 | 3.35 | 25.82 | 8.62 | 0 | 0 | 
7 | CCCCCCCCCCC(CCCC)C(=O)N1CCCCC1 (stereo not drawn) [Compound 12.9] |  |  |  |  |  |  |  |  |  |  |  |  |  |  | >25 | 28.14 | 10.56 | 1.94 | 1.32 | 
8 | CCCCCCCCCCC(CCCCCCCC)C(=O)N1CCCCC1 (stereo not drawn) [Compound 12.10] |  |  |  |  |  |  |  |  |  |  |  |  |  |  | >25 | 12.5 | 13.00 | 11.40 | 17.88 | 
